We go through 4 molecules from US20200375963A1 (priority 2017, published 2020).

What all share (assay type): cell-based, human
The test system of assay [1] is HIF-1α. Nature of the assay: HIF-1α immunoblot of HEK293T cells. Here is the method: (§1) Leukoreduction filters (Terumo BCT, Lakewood, Colo.), waste products of platelet donation process, were used to isolate PBMCs by an IRB-approved protocol. PBMCs were isolated using Histopaque-1077 (Sigma). Monocyte-enriched PBMCs (MEPs) were prepared using cold-aggregation method with slight modifications (30,60) Monocytes were isolated from MEPs or PBMCs using EasySep Human CD14 Positive Selection Kit (STEMCELL Technologies). Flow cytometric verification of isolated CD14+ cells were performed using RPCI core facility services. The MEPs were cultured at an average density of 25-35×10^6/ml in 1 or 2 ml per well in 6- or 12-well standard tissue culture plates under standard conditions (37° C./5% CO2) in RPMI-1640 medium with 10% FBS, 100 U/ml penicillin and […] streptomycin (Mediatech). Isolated CD14+ and CD14− cells were cultured at approximately 5×10^6 cell/ml and 7×10^6 cells per ml densities, respectively. THP-1 and TLA-HEK293T cell lines were purchased from ATCC, and Open Biosystems®, respectively, and cultured in recommended conditions. THP-1 cells were cultured in 10^6 cells per 100 μl in 96-well culture plates in ATCC-formulated-1640 medium (30-2001), whereas 293T cells were cultured in DMEM medium supplemented with 10% FBS.
(§2) Cells were cultured under 1% or 6% O2, 5% CO2 and 94% N2 at 37° C. using Xvivo System (Biospherix). Human ‘universal’ type I IFN was obtained from PBL Assay Science and used at 600 U/ml. Atpenin A5 (Cayman chemical #11898), myxothiazol (Sigma-Aldrich, #T5580) and 2-Thenoyltrifluoroacetone (TTFA) (Sigma-Aldrich, #T27006) were used at 1-2 μM and 400 μM final concentrations, respectively. DFO (Sigma-Aldrich #D9533) and DMOG (Sigma-Aldrich #D3695) were used in 0.5 mM and 1.0 mM final concentrations, respectively.
(§3) 2× Laemmeli buffer (BIO-RAD) was used to prepare whole cell lysates. The lysate resuspended in the Laemmeli buffer was heated at 95° C. for 15 minutes, and 40 μl of the sample was used to perform gel electrophoresis on pre-cast, 4%-15% gradient polyacrylamide gels (Mini-PROTEAN TGX, Bio-Rad) in Laemmeli buffer system. Mouse monoclonal anti-HIF1α (product number GTX628480, GT10211; 1:1000 dilution) and mouse monoclonal anti-β-actin (product number AM4302, AC-15; 1:15,000 dilution) was used to detect HIF-1α or actin, respectively followed by incubation with HRP-conjugated goat anti-mouse antibodies (Life Technologies) at 1:2000 dilution.
(In general: In western blotting, separated proteins are transferred to a membrane and probed.)

In assay [2] the test system is HIF-1α. Nature of the assay: HIF-1α immunoblot of CD14+ and CD14− primary cells. Here is the method:
as §1, §2, §3

For assay [3], the system named is hypoxia-regulated genes (ELL2, VEGFA) in 293T cells. Nature of the assay: RT-qPCR of hypoxia-regulated genes in 293T cells. The note with it: normoxia and hypoxia (1% O2), 24 hours. Here is the method:
(§4) Leukoreduction filters (Terumo BCT, Lakewood, Colo.), waste products of platelet donation process, were used to isolate PBMCs by an IRB-approved protocol. PBMCs were isolated using Histopaque-1077 (Sigma). Monocyte-enriched PBMCs (MEPs) were prepared using cold-aggregation method with slight modifications (30,60) Monocytes were isolated from MEPs or PBMCs using EasySep Human CD14 Positive Selection Kit (STEMCELL Technologies). Flow cytometric verification of isolated CD14+ cells were performed using RPCI core facility services. […]
(§5) RNA and plasmid DNA were isolated with commercial kits (TRIzol, Life Technologies and Qiagen, respectively). RNA/DNA was quantified by Nanodrop 2000 (Thermo Fisher). Proteins were quantified using Bio-Rad Dc assay with BSA standards. […] SDHB c.136C>U RNA editing was quantified by allele specific RT-qPCR PCR oligonucleotide primers (FIG. 13) were obtained from Integrated DNA Technologies, Inc. ADM, ELL2, HILPDA, NGLY1, MET, TKTL1, VEGFA and B2M gene expression levels was assessed by qPCR using FastStart Taq DNA polymerase and SYBR Green I dye on a LightCycler 480 System (Roche). Quantification cycle values were calculated by the instrument software using the maximum second derivative method and the mean quantification cycle value of duplicate PCR reactions was used for analysis. […]

The test system of assay [4] is monocyte-enriched PBMCs (MEPs). Nature of the assay: Oxygen consumption in MEPs (MitoXpress-Xtra phosphorescent oxygen probe). The note with it: approximately 3 hours, n=3 donors. As for the experimental part:
(§6) We first measured oxygen consumption and L-lactate levels to confirm the effect of AtA5 and MXT on mitochondrial respiration in MEPs. We used a phosphorescent oxygen probe (MitoXpress-Xtra) which is quenched by oxygen. Cellular respiration in a closed system depletes oxygen and increases the fluorescence. […] Normoxic induction of RNA editing by MXT is also confirmed in a separate experiment from three additional donors (FIG. 11).
(§7) Oxygen consumption was measured using phosphorescent oxygen probe, MitoXpress-Xtra (Cayman Dual Assay Kit, item no. 601060). Monocytes were enriched to >50% purity by short-term cold aggregation and first cultured in standard conditions for 24 hours without treatment to stimulate metabolic activity. Cells were then centrifuged at 200×g for 7 minutes and resuspended in 1 ml RPMI/1% FBS with or without mitochondrial inhibitors. Cells are covered by mineral oil after addition of MitoXpress-Xtra following manufacturer's protocol. The fluorescence was kinetically measured on a plate reader (Synergy H1) at 20 sec intervals for approximately 3 hours (delay 70 μsec, collection time 30 μsec). Supernatants of the oxygen consumption assay were used to measure L-lactate levels following manufacturer's instructions.

Assay [5] has as its system A3A-mediated RNA editing (SDHB c.136 C>U) in monocyte-enriched PBMCs (MEPs). Nature of the assay: SDHB c.136 C>U RNA editing in monocyte-enriched PBMCs (allele specific RT-qPCR). As for the experimental part:
as §1, §2
RNA and plasmid DNA were isolated with commercial kits (TRIzol, Life Technologies and Qiagen, respectively). RNA/DNA was quantified by Nanodrop 2000 (Thermo Fisher). Proteins were quantified using Bio-Rad Dc assay with BSA standards. RNA was reverse transcribed with the Transcriptor First Strand cDNA Synthesis (Roche) kit. SDHB c.136C>U RNA editing was quantified by allele specific RT-qPCR PCR oligonucleotide primers (FIG. 13) were obtained from Integrated DNA Technologies, Inc. ADM, ELL2, HILPDA, NGLY1, MET, TKTL1, VEGFA and B2M gene expression levels was assessed by qPCR using FastStart Taq DNA polymerase and SYBR Green I dye on a LightCycler 480 System (Roche). Quantification cycle values were calculated by the instrument software using the maximum second derivative method and the mean quantification cycle value of duplicate PCR reactions was used for analysis. Delta delta CT method is used to infer gene expression changes.
(In general: Quantitative PCR measures a nucleic acid by following its amplification.)

The subject of assay [6] is monocyte-enriched PBMCs (MEPs). Nature of the assay: L-Lactate levels in extra-cellular media of MEPs. The note with it: supernatants of the oxygen consumption assay. As for the experimental part:
as §6, §7

Assay [7] relates to hypoxia-response elements (HRE) from PGK1, a HIF-1α target gene. Nature of the assay: HRE-luciferase reporter in HEK293T cells. The note with it: 293T. As for the experimental part:
It is possible that HIF-1α may have degraded depending on cell type, time of analysis (24 h) or another factor. Therefore, we further examined the effect of AtA5 in HEK293T embryonic kidney cell line and THP-1 monocytic leukemia cell line over a 24 hour period. Several studies in cell lines have reported normoxic stabilization of HIF-1α upon knocking down MTCII (Selak et al., (2005), Cancer. Cell, 7, 77-85, Guzy et al., (2008), Mol. Cell. Biol., 28, 718-731, Cervera et al., (2008), Cancer Res., 68, 4058-4067). […] Since AtA5 appeared to suppress HIF-1α in mild hypoxia, we exposed the cells to both 6% and 1% O2. […] To confirm the suppression of HIF-regulated gene expression, we used a plasmid construct expressing firefly luciferase under the control of three hypoxia-response elements […] from PGK1, a HIF-1α target gene.
HEK293T cells were cotransfected with the 400 ng of HRE-luciferase (Addgene, plasmid #26731), 1 ng of pRL-SV40 plasmid, 600 ng of pcDNA 3.1(+) (control empty vector) per well at ˜50-60% confluency using jetPRIME (Polyplus-transfection) in 12-well culture plates as per the manufacturer's instructions. Transfection efficiency was 60%-80% as assessed by fluorescent microscopy of cells co-transfected with the pLemiR plasmid DNA (Open Biosystems) for expression of a red fluorescent protein. Cells were harvested 2 days after transfection for measurement of their HRE and Renilla luciferase activities using Dual-Luciferase Reporter Assay System (Promega). HRE expression was quantified as a ratio of HRE/Renilla luciferase activities.
(In general: A reporter such as luciferase makes a cellular process visible.)

Assay [8] deals with hypoxia-regulated genes (HILPDA, VEGFA) in THP-1 cells. Nature of the assay: RT-qPCR of hypoxia-regulated genes in THP-1 cells. The conditions noted are these: THP-1, normoxia or hypoxia (1%), 24 hours, HILPDA and VEGFA. As for the experimental part: as §4, §5
Assay [9] concerns hypoxia-related gene expression in CD14+ monocytes. Nature of the assay: Gene expression in CD14+ monocytes (RNA seq, RT-qPCR). The note with it: isolated CD14+ monocytes, normoxia, 1 day, n=3 donors.
Assay [10] relates to HIF-1α. Nature of the assay: HIF-1α immunoblot of THP-1 cells. The note with it: THP-1, hypoxia 1% O2, 24 hours. As for the experimental part:
as §1
Cells were cultured under 1% or 6% O2, 5% CO2 and 94% N2 at 37° C. using Xvivo System (Biospherix). […]

Setting [11] is: HEK293T, normoxia, 24 hours, DMOG 1 mM, DFO 0.5 mM, AtA5 1 μM.

On to `CC(=O)N(O)CCCCCNC(=O)CCC(=O)N(O)CCCCCNC(=O)CCC(=O)N(O)CCCCCN.CS(=O)(=O)O` [DFO], for which, in assay [1] (setting [11]), the “stabilization of HIF-1α” value was “stabilized HIF-1α in normoxia”.

Regarding `COC(=O)CNC(=O)C(=O)OC` [DMOG], the “HIF-1α stabilization (western blot)” value in [2] (normoxia, CD14+ and CD14− cells isolated after culture of MEPs for 1 or 2 days) was “caused robust normoxic stabilization of HIF-1α”. Moreover, the “stabilization of HIF-1α” value in assay [1] (setting [11]) is given as “stabilized HIF-1α in normoxia”.

Take `CO/C(=C/C(N)=O)[C@H](C)[C@H](/C=C/c1csc(-c2csc([C@@H](C)/C=C/C=C/C(C)C)n2)n1)OC` [MXT, myxothiazol]: the “HIF-1α stabilization (western blot)” value in assay [2] (hypoxia (1% O2), monocytes isolated from PBMCs then cultured 24 hours, three donors) is “appeared to enhance the stabilization of HIF-1α in hypoxic monocytes in two of three donors”; in assay [2] (normoxia, monocytes isolated from PBMCs then cultured 24 hours), “did not robustly stabilize HIF-1α”. Also, the “stabilization of HIF-1α” value is “inhibited it both at 6% O2 and 1% O2” in assay [1] (293T, 1% O2, 24 hours); “inhibited it both at 6% O2 and 1% O2” in [1] (293T, 6% O2, 24 hours); “inhibited it even at 1% O2” in assay [10]. Besides, the “expression of hypoxia-regulated genes” value in [3] and in [8] was “suppressed” each time. The oxygen consumption entry in assay [4] is given as “completely suppressed oxygen consumption”. Further, the “SDHB c.136 C>U RNA editing” value in [5] (inhibitor jointly with hypoxia (1% O2), compared to hypoxia alone) is “no statistically significant effect”; in [5] (mild hypoxia (6% O2)), “increased the editing level”; in [5] (normoxia, 1-3 days) it was “induced SDHB mRNA editing in normoxia”. Besides, the L-Lactate levels entry in assay [6] was “increased relative to the degree of respiratory inhibition”. In addition, the “HRE-driven expression (ratio of HRE/Renilla luciferase activities)” value in assay [7] (1% O2, 24 hours) is “inhibited HRE-driven expression”; in assay [7] (6% O2, 24 hours), “inhibited HRE-driven expression”. The “mRNA expression of VEGFA and HILPDA” value in assay [9] is listed as “statistically significantly increased”.

`O=C(CC(=O)C(F)(F)F)c1cccs1` [TTFA, 2-Thenoyltrifluoroacetone]: in assay [5] (normoxia, 1-3 days), the “SDHB c.136 C>U RNA editing” value is given as “also induced RNA editing in normoxia”.
